Results on three molecules are retold here after article PMC4367188 (ACS Chemical Neuroscience, 2015).

The target of one data set is T1, WT hCHT (Homo sapiens, UniProt Q9GZV3).
T1 sequence (Q9GZV3 1-580): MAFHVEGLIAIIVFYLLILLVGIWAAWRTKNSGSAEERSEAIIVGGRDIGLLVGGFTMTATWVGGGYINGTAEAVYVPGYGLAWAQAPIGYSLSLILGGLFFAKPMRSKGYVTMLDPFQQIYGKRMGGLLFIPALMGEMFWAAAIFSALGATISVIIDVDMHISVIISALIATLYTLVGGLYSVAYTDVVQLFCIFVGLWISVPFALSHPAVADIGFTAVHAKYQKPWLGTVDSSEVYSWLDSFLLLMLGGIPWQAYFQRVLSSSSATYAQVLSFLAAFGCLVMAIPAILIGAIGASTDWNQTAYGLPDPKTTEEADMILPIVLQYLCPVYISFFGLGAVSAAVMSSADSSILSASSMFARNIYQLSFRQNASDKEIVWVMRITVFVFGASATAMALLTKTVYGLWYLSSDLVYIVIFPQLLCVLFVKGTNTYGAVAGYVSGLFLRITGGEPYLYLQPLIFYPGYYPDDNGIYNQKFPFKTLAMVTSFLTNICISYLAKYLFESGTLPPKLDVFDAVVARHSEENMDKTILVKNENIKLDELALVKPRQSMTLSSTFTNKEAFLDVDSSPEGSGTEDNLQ
In words: cell-surface biotinylation, CHT surface expression in WT hCHT HEK 293 cells. The data set is classed as cell-based.

The target in another data set is T2, hCHT (Homo sapiens, UniProt Q9GZV3).
T2 sequence (Q9GZV3 1-580): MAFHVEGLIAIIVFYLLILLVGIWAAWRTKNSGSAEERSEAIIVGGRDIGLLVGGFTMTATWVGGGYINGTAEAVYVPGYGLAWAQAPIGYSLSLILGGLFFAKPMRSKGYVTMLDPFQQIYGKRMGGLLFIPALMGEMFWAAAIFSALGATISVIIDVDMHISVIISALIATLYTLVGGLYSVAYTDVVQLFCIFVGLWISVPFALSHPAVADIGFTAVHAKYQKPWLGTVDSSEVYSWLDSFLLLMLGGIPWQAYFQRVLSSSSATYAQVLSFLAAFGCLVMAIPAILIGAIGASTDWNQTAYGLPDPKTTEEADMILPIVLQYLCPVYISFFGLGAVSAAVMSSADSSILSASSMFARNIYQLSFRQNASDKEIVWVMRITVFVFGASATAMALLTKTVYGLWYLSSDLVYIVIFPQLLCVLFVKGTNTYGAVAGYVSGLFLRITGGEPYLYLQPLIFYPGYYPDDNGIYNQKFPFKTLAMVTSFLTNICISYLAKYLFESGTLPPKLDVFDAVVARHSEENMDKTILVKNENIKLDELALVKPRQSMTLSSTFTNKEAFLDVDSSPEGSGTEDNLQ
The experiment in a line: [3H]HC-3 binding to membranes from HEK hCHT cells.

Substrate in data set [1]: C[N+](C)(C)CCO
In words: cells, lysate or membranes. As to conditions: other: hCHT LV-AA transfected cells; no inhibitor; 37.0 °C.

As for `C[N+](C)(C)CCO` [choline], the “effect of choline on CHT surface expression” value on WT hCHT (choline (10 μM), 15 min) is “no evidence for the previously reported choline-dependent reductions”.

Turning to `C[N+]1(C)CCOC(O)(c2ccc(-c3ccc(C4(O)C[N+](C)(C)CCO4)cc3)cc2)C1` (stereo not shown) [HC-3, hemicholinium-3, reference compound], the “increase in steady-state hCHT surface expression” value on WT hCHT (5 μM, 15 min incubation) is 76 ± 16 % of control. Binding on hCHT was put at a Kd of 8.5 ± 1.1 nM.

B1: hCHT LV-AA (Homo sapiens; L531A/V532A) (protein)
chain: MAFHVEGLIAIIVFYLLILLVGIWAAWRTKNSGSAEERSEAIIVGGRDIGLLVGGFTMTATWVGGGYINGTAEAVYVPGYGLAWAQAPIGYSLSLILGGLFFAKPMRSKGYVTMLDPFQQIYGKRMGGLLFIPALMGEMFWAAAIFSALGATISVIIDVDMHISVIISALIATLYTLVGGLYSVAYTDVVQLFCIFVGLWISVPFALSHPAVADIGFTAVHAKYQKPWLGTVDSSEVYSWLDSFLLLMLGGIPWQAYFQRVLSSSSATYAQVLSFLAAFGCLVMAIPAILIGAIGASTDWNQTAYGLPDPKTTEEADMILPIVLQYLCPVYISFFGLGAVSAAVMSSADSSILSASSMFARNIYQLSFRQNASDKEIVWVMRITVFVFGASATAMALLTKTVYGLWYLSSDLVYIVIFPQLLCVLFVKGTNTYGAVAGYVSGLFLRITGGEPYLYLQPLIFYPGYYPDDNGIYNQKFPFKTLAMVTSFLTNICISYLAKYLFESGTLPPKLDVFDAVVARHSEENMDKTIAAKNENIKLDELALVKPRQSMTLSSTFTNKEAFLDVDSSPEGSGTEDNLQ
On to B1, for which the Km (in general, the substrate concentration at which the rate is half of its maximum) in data set [1] amounted to 2.5 ± 0.4 µM.
